Laboratory results as given in US8530462B2, “Indole modulators of S1P receptors” (Allergan, Inc., priority 2010, dated 2013).

Target: T1, human S1P1 receptor (Homo sapiens, UniProt P21453)
T1 construct: expressed in transfected cells; membranes were used
Assay: GTP γ35S binding assay, S1P1 receptor activity
Assay type: biochemical
Conditions: for % stimulation: S1P1 receptor, agonist-induced stimulation; for EC50: membranes of cells stably expressing the S1P1 receptor, test compounds 0.08 to 5,000 nM
Method: The S1P1 activity of the compounds according to the invention, were tested using the GTP γ^35S binding assay. The compounds were assessed for their ability to activate or block activation of the human S1P1 receptor in cells stably expressing the S1P1 receptor.
GTP γ^35S binding was measured in the medium containing (mM) HEPES 25, pH 7.4, MgCl2 10, NaCl 100, dithitothreitol 0.5, digitonin 0.003%, 0.2 nM GTP γ^35S, and 5 μg membrane protein in a volume of 150 μl. Test compounds were included in the concentration range from 0.08 to 5,000 nM unless indicated otherwise. Membranes were incubated with 100 μM 5′-adenylylimmidodiphosphate for 30 min, and subsequently with 10 μM GDP for 10 min on ice. Drug solutions and membrane were mixed, and then reactions were initiated by adding GTP γ^35S and continued for 30 min at 25° C. Reaction mixtures were filtered over Whatman GF/B filters under vacuum, and washed three times with 3 mL of ice-cold buffer (HEPES 25, pH7.4, MgCl2 10 and NaCl 100). Filters were dried and mixed with scintillant, and counted for ^35S activity using a β-counter. Agonist-induced GTP γ^35S binding was obtained by subtracting that in the absence of agonist. Binding data were analyzed using a non-linear regression method. In case of antagonist assay, the reaction mixture contained 10 nM S1P in the presence of test antagonist at concentrations ranging from 0.08 to 5000 nM.
Activity potency: S1P1 receptor from GTP γ^35S: nM, (EC50), % stimulation, […]

T1 sequence (P21453 whole entry): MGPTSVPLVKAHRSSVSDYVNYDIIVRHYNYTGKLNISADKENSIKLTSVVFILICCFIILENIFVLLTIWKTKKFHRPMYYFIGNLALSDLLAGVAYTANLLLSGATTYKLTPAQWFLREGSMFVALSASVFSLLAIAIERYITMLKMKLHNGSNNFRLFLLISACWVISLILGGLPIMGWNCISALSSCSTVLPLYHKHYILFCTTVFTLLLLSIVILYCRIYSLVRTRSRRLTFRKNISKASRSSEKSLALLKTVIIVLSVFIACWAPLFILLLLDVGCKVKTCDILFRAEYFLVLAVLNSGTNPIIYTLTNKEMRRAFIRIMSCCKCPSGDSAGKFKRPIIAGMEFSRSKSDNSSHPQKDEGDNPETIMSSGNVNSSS

Row | Compound | % stimulation | EC50
1 | Cc1ccc(Cn2cc(-c3nc(-c4ccc(CN5CC(C(=O)O)C5)cc4)no3)c3ccccc32)cc1C [Compound 4, 1-(4-{5-[1-(3,4-dimethylbenzyl)-1H-indol-3-yl]-1,2,4-oxadiazol-3-yl}benzyl)azetidine-3-carboxylic acid] | 92% | 1020 nM
2 | CNc1ncccc1-c1noc(-c2cn(Cc3ccccc3)c3ccccc23)n1 [Compound 10, 3-[5-(1-benzyl-1H-indol-3-yl)-1,2,4-oxadiazol-3-yl]-N-methylpyridin-2-amine] | 88% | 703 nM
3 | CNc1ncccc1-c1noc(-c2cn(Cc3ccc(C)c(C)c3)c3ccc(F)cc23)n1 [Compound 11, 3-{5-[1-(3,4-dimethylbenzyl)-5-fluoro-1H-indol-3-yl]-1,2,4-oxadiazol-3-yl}-N-methylpyridin-2-amine] |  | 569 nM
4 | Cc1ccc(Cn2c(C)c(-c3nc(-c4ccc(CN5CC(C(=O)O)C5)cc4)no3)c3cc(F)ccc32)cc1C [Compound 9, 1-(4-{5-[1-(3,4-dimethylbenzyl)-5-fluoro-2-methyl-1H-indol-3-yl]-1,2,4-oxadiazol-3-yl}benzyl)azetidine-3-carboxylic acid] | 85% | 1000 nM
5 | O=C(O)CCCCNCc1ccc(-c2noc(-c3cn(Cc4ccccc4)c4ccccc34)n2)cc1 [Compound 15, 5-({4-[5-(1-benzyl-1H-indol-3-yl)-1,2,4-oxadiazol-3-yl]benzyl}amino)pentanoic acid] | 108% | 1010 nM
6 | c1ccc(Cn2cc(-c3nc(-c4ccc(Cn5ccnc5)cc4)no3)c3ccccc32)cc1 [Compound 6, 1-benzyl-3-{3-[4-(1H-imidazol-1-ylmethyl)phenyl]-1,2,4-oxadiazol-5-yl}-1H-indole] | 86% | 1160 nM
7 | Cc1ccc2c(c1)c(-c1nc(-c3ccc(CN4CC(C(=O)O)C4)cc3)no1)cn2Cc1ccc(C)c(C)c1 [Compound 1, 1-(4-{5-[1-(3,4-dimethylbenzyl)-5-methyl-1H-indol-3-yl]-1,2,4-oxadiazol-3-yl}benzyl)azetidine-3-carboxylic acid] | 92% | 426 nM
8 | O=C(O)C1CN(Cc2ccc(-c3noc(-c4cn(Cc5ccccc5)c5ccccc45)n3)cc2)C1 [Compound 8, 1-{4-[5-(1-benzyl-1H-indol-3-yl)-1,2,4-oxadiazol-3-yl]benzyl}azetidine-3-carboxylic acid] | 66% | 494 nM
9 | Cc1ccc(Cn2cc(-c3nc(-c4ccc(CNCCC(=O)O)cc4)no3)c3ccccc32)cc1C [Compound 16, 3-[(4-{5-[1-(3,4-dimethylbenzyl)-1H-indol-3-yl]-1,2,4-oxadiazol-3-yl}benzyl)amino]propanoic acid] | 81% | 1440 nM
10 | Cc1ccc(Cn2cc(-c3nc(-c4ccc(CNCCC(=O)O)cc4)no3)c3cc(F)ccc32)cc1C [Compound 14, 3-[(4-{5-[1-(3,4-dimethylbenzyl)-5-fluoro-1H-indol-3-yl]-1,2,4-oxadiazol-3-yl}benzyl)amino]propanoic acid] | 93% | 1490 nM
11 | O=C(O)CCNCc1ccc(-c2noc(-c3cn(Cc4ccccc4)c4ccccc34)n2)cc1 [Compound 12, 3-({4-[5-(1-benzyl-1H-indol-3-yl)-1,2,4-oxadiazol-3-yl]benzyl}amino)propanoic acid] |  | 394 nM
12 | COc1ccc2c(c1)c(-c1nc(-c3ccc(CN4CC(C(=O)O)C4)cc3)no1)c(C)n2Cc1ccc(C)c(C)c1 [Compound 3, 1-(4-{5-[1-(3,4-dimethylbenzyl)-5-methoxy-2-methyl-1H-indol-3-yl]-1,2,4-oxadiazol-3-yl}benzyl)azetidine-3-carboxylic acid] | 82% | 1560 nM
13 | O=C(O)C1CN(Cc2ccc(-c3noc(-c4cn(Cc5ccccc5)c5ccc(F)cc45)n3)cc2)C1 [Compound 5, 1-{4-[5-(1-benzyl-5-fluoro-1H-indol-3-yl)-1,2,4-oxadiazol-3-yl]benzyl}azetidine-3-carboxylic acid] | 91% | 189 nM
14 | O=C(O)CCNCc1ccc(-c2noc(-c3cn(Cc4ccccc4)c4ccc(F)cc34)n2)cc1 [Compound 17, 3-({4-[5-(1-benzyl-5-fluoro-1H-indol-3-yl)-1,2,4-oxadiazol-3-yl]benzyl}amino)propanoic acid] | 100% | 129 nM
15 | Cc1ccc(Cn2cc(-c3nc(-c4ccc(CN5CC(C(=O)O)C5)cc4)no3)c3cc(F)ccc32)cc1C [Compound 2, 1-(4-{5-[1-(3,4-dimethylbenzyl)-5-fluoro-1H-indol-3-yl]-1,2,4-oxadiazol-3-yl}benzyl)azetidine-3-carboxylic acid] | 94% | 737 nM
16 | Cc1ccc2c(c1)c(-c1nc(-c3ccc(CNCCC(=O)O)cc3)no1)cn2Cc1ccc(C)c(C)c1 [Compound 13, 3-[(4-{5-[1-(3,4-dimethylbenzyl)-5-methyl-1H-indol-3-yl]-1,2,4-oxadiazol-3-yl}benzyl)amino]propanoic acid] | 82% | 351 nM
